The values that follow come from patent US20240174696A1, “2,8-DIAZASPIRO[4.5]DECANE COMPOUNDS” (Genentech, Inc., priority 2021, published 2024).

pEC50, pKi: −log10 of the molar value. Counter-ions that a name gives are not always drawn.

In assay [1] the target is Human LATS2 catalytic domain (Homo sapiens (Human), UniProt Q9NRM7). Put plainly: LATS2 High ATP HTRF Assay. It counts as biochemical. The settings on record: no asterisk: LATS2 High ATP HTRF Assay, 5000 μM ATP, 0.05 nM LATS2. Summed up:
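LATS2 catalytic domain (G553-V1088) co-purified with Mob1b, 0.05 nM, pre-incubated 10 min with compound, then 5000 μM ATP and 0.5 μM STK S1 peptide in HEPES pH7.2 for 2 h at room temperature. HTRF 665/620 nm read; IC50 by four-parameter fit, Ki via Cheng-Prusoff with ATP Km 105 μM.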
(Time-resolved FRET reads energy transfer from a long-lived donor to a nearby acceptor.)

The test system of assay [2] is TAZ nuclear translocation in SW1990 cells. Put plainly: TAZ Nuclear Translocation Assay. In kind it is cell-based. Particulars: Homo sapiens, 4 hours. Summed up:
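SW1990 cells in RPMI1640/10% FBS treated with compounds for 4 h at 37 °C, then fixed and immunostained for TAZ with Hoechst nuclear counterstain and imaged by high-content imaging. Read-out is the nuclear/cytoplasmic-ring fluorescence ratio, normalized to DMSO (0%) and an inhibitor control (100%); EC50 from four-parameter fit.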

Assay [3] has as its system pYAP(Ser127) in SW1990 cells. Put plainly: pYAP(Ser127) HTRF Cellular Assay. The settings on record: Homo sapiens, 4 hours. It counts as cell-based. The method, then:
The SW1990 cells were seeded at 8000 cells/well by adding 30 μL/well of cells in RPMI1640, 10% FBS, 2 mM glutamine culture media to a 384-well plate (Corning 3570). The cells were incubated overnight at 37° C. Next day, compounds were directly added to the cells using the Echo Liquid Handler (Labcyte), incubate at 37° C. for 4 hours.
The HTRF assay was performed using the Cisbio phospho-YAP Ser127 HTRF kit (64YAPPEG). The media was aspirated from the cells. 20 μL of 1X lysis/blocking buffer was added to the cells, gently shake for 30 minutes at room temperature. 1 μL of the premixed antibody solution (1:40 dilution of each phospho-YAP Eu Cryptate antibody and phospho-YAP d2 antibody) was added to the cells. The plate was sealed and incubated overnight at room temperature. The HTRF (665 nm/620 nm) signal was read on the PHERAstar reader (BMG Labtech). The EC50 values were calculated by fitting the % inhibition with a nonlinear four-parameter logistical equation.

Chain of Human LATS2 catalytic domain (Q9NRM7 553-1088): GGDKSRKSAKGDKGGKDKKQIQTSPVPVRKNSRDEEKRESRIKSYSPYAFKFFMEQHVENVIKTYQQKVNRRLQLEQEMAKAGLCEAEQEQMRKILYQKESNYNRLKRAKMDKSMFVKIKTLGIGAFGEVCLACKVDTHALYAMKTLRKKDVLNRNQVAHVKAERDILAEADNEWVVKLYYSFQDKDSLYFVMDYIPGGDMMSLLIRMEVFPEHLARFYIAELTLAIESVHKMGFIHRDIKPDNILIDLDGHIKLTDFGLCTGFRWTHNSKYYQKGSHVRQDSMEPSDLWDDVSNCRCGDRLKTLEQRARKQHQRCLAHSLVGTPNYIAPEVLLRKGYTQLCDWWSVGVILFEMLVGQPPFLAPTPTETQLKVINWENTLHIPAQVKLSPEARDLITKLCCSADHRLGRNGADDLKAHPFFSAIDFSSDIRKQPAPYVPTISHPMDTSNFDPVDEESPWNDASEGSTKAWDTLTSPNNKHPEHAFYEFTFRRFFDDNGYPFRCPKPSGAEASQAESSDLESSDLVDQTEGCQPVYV
Chain of Human LATS2 catalytic domain (Q7L9L4 whole entry partner, the tested form may be a part): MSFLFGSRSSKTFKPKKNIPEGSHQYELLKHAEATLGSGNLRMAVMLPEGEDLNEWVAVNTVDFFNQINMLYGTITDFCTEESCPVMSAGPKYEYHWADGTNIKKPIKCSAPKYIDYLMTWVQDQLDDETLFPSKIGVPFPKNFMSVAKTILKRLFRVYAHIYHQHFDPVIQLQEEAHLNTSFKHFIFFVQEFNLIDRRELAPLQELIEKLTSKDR

What is called pKi is the Ki on a negative log10 scale, so that one unit is a factor of ten. For orientation: pEC50 means the negative decadic logarithm of the EC50, by convention in mol/L. On to `c1cc(-c2nc(N3CCC4(CC3)CCN([C@@H]3CCOC3)C4)c3ccncc3n2)ccn1` (single isomer, unassigned) [Compound 112], for which the pKi in assay [1] was 8.97. Besides, the pEC50 is 6.15 in assay [2] and 6.03 in assay [3].

`c1cc(-c2nc(N3CCC4(CC3)CCN([C@H]3CCOC3)C4)c3ccncc3n2)ccn1` (single isomer, unassigned) [Compound 113] had a pKi in assay [1] of 9.09. Also, the pEC50 was 6.18 in assay [2] and 5.96 in assay [3].

For the molecule `OC[C@@H]1CC2(CCN(c3nc(-c4ccncc4)nc4cnccc34)CC2)CN1` (single isomer, unassigned) [Compound 197], the negative logarithm of the Ki (pKi) in assay [1] was 10.23. For the same molecule, the pEC50 in assay [2] was 5.89; in assay [3], 5.85.

Molecule `OC[C@H]1CC2(CCN(c3nc(-c4ccncc4)nc4cnccc34)CC2)CN1` (single isomer, unassigned) [Compound 198] had a pKi in assay [1] of 10.39. Besides, the pEC50 in assay [2] is 5.85; in assay [3], 5.62.

In turn, `FC(F)(F)CN1CCC2(CCN(c3nc(-c4ccncc4)nc4cnccc34)CC2)C1` [Compound 105, 2-(pyridin-4-yl)-4-(2-(2,2,2-trifluoroethyl)-2,8-diazaspiro[4.5]decan-8-yl)pyrido[3,4-d]pyrimidine] showed a pKi in assay [1] of 8.51. For the same molecule, the results for the pEC50 in assay [2] and in assay [3] were 5.64 and 5.24, respectively.

In assay [1], `c1cc(-c2nc(N3CCC4(CC3)CCN(C3CCCC3)C4)c3ccncc3n2)ccn1` [Compound 106, 4-(2-cyclopentyl-2,8-diazaspiro[4.5]decan-8-yl)-2-(pyridin-4-yl)pyrido[3,4-d]pyrimidine formate] had a pKi of 10.28. The pEC50 in assay [2] is 6.52; in assay [3], 6.64.

Turning to `CC(C)(CO)N1CCC2(CCN(c3nc(-c4ccncc4)nc4cnccc34)CC2)C1` [Compound 107, 2-methyl-2-(8-(2-(pyridin-4-yl)pyrido[3,4-d]pyrimidin-4-yl)-2,8-diazaspiro[4.5]decan-2-yl)propan-1-ol], the negative-log Ki (pKi) in assay [1] was 9.21. Besides, the pEC50 in assay [2] is 6.38; in assay [3], 6.54.

Consider `OC1CC(N2CCC3(CCN(c4nc(-c5ccncc5)nc5cnccc45)CC3)C2)C1` (centres unmarked) [Compound 108, 3-(8-(2-(pyridin-4-yl)pyrido[3,4-d]pyrimidin-4-yl)-2,8-diazaspiro[4.5]decan-2-yl)cyclobutanol], for which, in assay [1], the pKi was 9.51. Moreover, the figures for the negative logarithm of the EC50 (pEC50) in assay [2] and in assay [3] were 6.42 and 6.24, respectively.

On to `OCCN1CCC2(CCN(c3nc(-c4ccncc4)nc4cnccc34)CC2)C1` [Compound 114, 2-(8-(2-(pyridin-4-yl)pyrido[3,4-d]pyrimidin-4-yl)-2,8-diazaspiro[4.5]decan-2-yl)ethanol], for which the pKi in assay [1] is 9.51. Moreover, the pEC50 in assay [2] is 6.21; in assay [3], 6.26.

For `OCCCN1CCC2(CCN(c3nc(-c4ccncc4)nc4cnccc34)CC2)C1` [Compound 120, 3-(8-(2-(pyridin-4-yl)pyrido[3,4-d]pyrimidin-4-yl)-2,8-diazaspiro[4.5]decan-2-yl)propan-1-ol], in assay [1], the pKi was 9.77. Besides, the figures for the negative-log EC50 (pEC50) in assay [2] and in assay [3] were 6.43 and 6.44, respectively.

Molecule `COCCN1CCC2(CCN(c3nc(-c4ccncc4)nc4cnccc34)CC2)C1` [Compound 121, 4-(2-(2-methoxyethyl)-2,8-diazaspiro[4.5]decan-8-yl)-2-(pyridin-4-yl)pyrido[3,4-d]pyrimidine] had a pKi in assay [1] of 9.10. In addition, the pEC50 in assay [2] is 6.52; in assay [3], 6.20.

Turning to `FC(F)CN1CCC2(CCN(c3nc(-c4ccncc4)nc4cnccc34)CC2)C1` [Compound 127, 4-(2-(2,2-difluoroethyl)-2,8-diazaspiro[4.5]decan-8-yl)-2-(pyridin-4-yl)pyrido[3,4-d]pyrimidine], the pKi in assay [1] was 9.26. Also, the pEC50 in assay [2] was 5.89; in assay [3] it was 5.47.

As to `c1cc(-c2nc(N3CCC4(CC3)CCN(C3CCC3)C4)c3ccncc3n2)ccn1` [Compound 131, 4-(2-cyclobutyl-2,8-diazaspiro[4.5]decan-8-yl)-2-(pyridin-4-yl)pyrido[3,4-d]pyrimidine], the negative-log Ki (pKi) in assay [1] was 9.54. The pEC50 in assay [2] was 6.55; in assay [3] it was 6.31.

In assay [1], `c1ccc(CN2CCC3(CCN(c4nc(-c5ccncc5)nc5cnccc45)CC3)C2)cc1` [Compound 133, 4-(2-benzyl-2,8-diazaspiro[4.5]decan-8-yl)-2-(pyridin-4-yl)pyrido[3,4-d]pyrimidine] gave a pKi of 10.16. The pEC50 is 6.40 in assay [2] and 6.60 in assay [3].

With `FC1(F)CNCC12CCN(c1nc(-c3ccncc3)nc3cnccc13)CC2` [Example 223, 4-(4,4-difluoro-2,8-diazaspiro[4.5]decan-8-yl)-2-(pyridin-4-yl)pyrido[3,4-d]pyrimidine], the pKi in assay [1] was 8.57. This molecule had a pEC50 in assay [2] of less than 5.00.

In the case of `CS(=O)(=O)NCC1CC2(CCN(c3nc(-c4ccncc4)nc4cnccc34)CC2)CN1` (centres unmarked) [Example 224, N-((8-(2-(pyridin-4-yl)pyrido[3,4-d]pyrimidin-4-yl)-2,8-diazaspiro[4.5]decan-3-yl)methyl)methanesulfonamide], the pKi in assay [1] was 9.80. In assay [2], this molecule gave a pEC50 of 5.05.

`Brc1cncc2nc(-c3ccncc3)nc(N3CCC4(CCNC4)CC3)c12` [Example 225, 5-Bromo-2-(pyridin-4-yl)-4-(2,8-diazaspiro[4.5]decan-8-yl)pyrido[3,4-d]pyrimidine] gave a pKi in assay [1] of 8.68. For the same molecule, in assay [2], the pEC50 is 5.74.

`Cc1n[nH]cc1-c1nc(N2CCC3(CCN(C)C3)CC2)c2cc(Cc3ccccc3)ncc2n1` [Example 226, 6-benzyl-2-(3-methyl-1H-pyrazol-4-yl)-4-(2-methyl-2,8-diazaspiro[4.5]decan-8-yl)pyrido[3,4-d]pyrimidine]: in assay [1], the pKi was 10.80. Besides, the pEC50 in assay [2] was 6.89.

Turning to `Cc1n[nH]cc1-c1nc(N2CCC3(CCN(C)C3)CC2)c2cc(Cc3cccnc3)ncc2n1` [Example 227, 2-(3-methyl-1H-pyrazol-4-yl)-4-(2-methyl-2,8-diazaspiro[4.5]decan-8-yl)-6-(pyridin-3-ylmethyl)pyrido[3,4-d]pyrimidine], in assay [1], the negative-log Ki (pKi) is 10.07. The same molecule gave a pEC50 in assay [2] of 5.64.

Consider `Cc1n[nH]cc1-c1nc(N2CCC3(CCNC3)CC2)c2ccnc(Cl)c2n1` [Example 232, 8-chloro-2-(3-methyl-1H-pyrazol-4-yl)-4-(2,8-diazaspiro[4.5]decan-8-yl)pyrido[3,4-d]pyrimidine], for which, in assay [1], the pKi was 10.21. This molecule also showed a pEC50 in assay [2] of 5.37.

For the molecule `COc1cncc2nc(-c3ccncc3)nc(N3CCC4(CCNC4)CC3)c12` [Example 233, 5-Methoxy-2-(pyridin-4-yl)-4-(2,8-diazaspiro[4.5]decan-8-yl)pyrido[3,4-d]pyrimidine], in assay [1], the pKi is 10.55. In assay [2], this molecule had a pEC50 of 6.59.

`F[C@@H]1CNCC12CCN(c1nc(-c3ccncc3)nc3cnccc13)CC2` [Example 234, (S)-4-(4-fluoro-2,8-diazaspiro[4.5]decan-8-yl)-2-(pyridin-4-yl)pyrido[3,4-d]pyrimidine] had a pKi in assay [1] of 8.35. The pEC50 in assay [2] was 5.38.

The molecule `F[C@H]1CNCC12CCN(c1nc(-c3ccncc3)nc3cnccc13)CC2` [Example 235, (R)-4-(4-fluoro-2,8-diazaspiro[4.5]decan-8-yl)-2-(pyridin-4-yl)pyrido[3,4-d]pyrimidine] gave a pKi in assay [1] of 8.89. The pEC50 in assay [2] was 5.74.

With `Cc1n[nH]cc1-c1nc(N2CCC3(CCN(C)C3)CC2)c2cc(Cc3ccncc3)ncc2n1` [Example 236, 2-(3-methyl-1H-pyrazol-4-yl)-4-(2-methyl-2,8-diazaspiro[4.5]decan-8-yl)-6-(pyridin-4-ylmethyl)pyrido[3,4-d]pyrimidine], the pKi in assay [1] is 9.31. Besides, in assay [2], the pEC50 was 5.92.

As to `Cc1n[nH]cc1-c1nc(N2CCC3(CCN(C)C3)CC2)c2cc(Cc3ccccn3)ncc2n1` [Example 238, 2-(3-methyl-1H-pyrazol-4-yl)-4-(2-methyl-2,8-diazaspiro[4.5]decan-8-yl)-6-(pyridin-2-ylmethyl)pyrido[3,4-d]pyrimidine], the pKi in assay [1] was 9.60. The pEC50 in assay [2] is 5.64.

For the molecule `OCc1cncc2nc(-c3ccncc3)nc(N3CCC4(CCNC4)CC3)c12` [Example 239, (2-(Pyridin-4-yl)-4-(2,8-diazaspiro[4.5]decan-8-yl)pyrido[3,4-d]pyrimidin-5-yl)methanol], the pKi in assay [1] is 8.31. This molecule showed a pEC50 in assay [2] of less than 5.00.

Regarding `CC(C)c1cncc2nc(-c3ccncc3)nc(N3CCC4(CCNC4)CC3)c12` [Example 240, 5-Isopropyl-2-(pyridin-4-yl)-4-(2,8-diazaspiro[4.5]decan-8-yl)pyrido[3,4-d]pyrimidine], the pKi in assay [1] was 8.70. The molecule also gave a pEC50 in assay [2] of 5.49.
